Experimental findings from ChEMBL document CHEMBL1154856, “Leuconicines A-G and (-)-eburnamaline, biologically active strychnan and eburnan alkaloids from Leuconotis” (J Nat Prod, 2009) are described below.

Bounds are passed on as bounds.

One may read the IC50 as the concentration that inhibits the measured activity by half.

What all share (format): functional, cell-based
Experiment [1] can be described thus: Cytotoxicity against vincristine-resistant human KB/VJ300 cells in presence of 0.1 ug/ml vincristine.
The subject of experiment [2] is KB. As to the kind of experiment: Cytotoxicity against vincristine-sensitive human KB cells.
Experiment [3] can be described thus: Cytotoxicity against vincristine-resistant human KB/VJ300 cells.
A short description of experiment [4]: Cytotoxicity against vincristine-resistant human KB/VJ300 cells in presence of 0.121 uM vincristine.

Take `CC[C@@]12CCCN3CCc4c(n(c5ccccc45)[C@H](O)[C@@H]1O)[C@H]32`: the IC50 in experiment [1], in experiment [2] and in experiment [3] was greater than 25 µg/mL throughout.

Take `CC[C@@H]1CN2CC[C@]34c5ccccc5-n5c3c(cc(C(N)=O)c5=O)[C@H]1C[C@H]24` [LEUCONICINE A]: the IC50 in experiment [4] is 7.12 µM; in experiment [1], 2.57 µg/mL; in experiment [2], greater than 25 µg/mL; in experiment [3], greater than 25 µg/mL.

Consider `CC[C@@H]1CN2CC[C@]34c5ccccc5-n5c3c(cc(C(=O)OC)c5=O)[C@H]1C[C@H]24` [LEUCONICINE B], for which the IC50 in experiment [4] is 5.27 µM; in experiment [1], 1.98 µg/mL; in experiment [2], greater than 25 µg/mL; in experiment [3], greater than 25 µg/mL.

For `CCC1=CN2CC[C@]34c5ccccc5-n5c3c(cc(C(N)=O)c5=O)[C@H]1C[C@H]24` [LEUCONICINE C], the IC50 in experiment [4] was 10.8 µM; in experiment [1], 3.86 µg/mL; in experiment [2], greater than 25 µg/mL; in experiment [3], greater than 25 µg/mL.

On to `CCC1=CN2CC[C@]34c5ccccc5-n5c3c(cc(C(=O)O)c5=O)[C@H]1C[C@H]24` [LEUCONICINE E], for which the IC50 in experiment [4] is 37.6 µM; in experiment [1] it was 13.5 µg/mL; in experiment [2], greater than 25 µg/mL; in experiment [3], greater than 25 µg/mL.

Turning to `CC[C@@H]1C[N+]2([O-])CC[C@]34c5ccccc5-n5c3c(cc(C(N)=O)c5=O)[C@H]1C[C@@H]42` (some centres undefined) [LEUCONICINE F], the IC50 in experiment [1], in experiment [2] and in experiment [3] was greater than 25 µg/mL throughout.

`CC[C@@H]1C[N+]2([O-])CC[C@]34c5ccccc5-n5c3c(cc(C(=O)OC)c5=O)[C@H]1C[C@@H]42` (some centres undefined) [LEUCONICINE G]: the 50% inhibitory concentration (IC50) in experiment [1], in experiment [2] and in experiment [3] was greater than 25 µg/mL in each case.

As for `CCC1=CN2CC[C@]34c5ccccc5-n5c3c(cc(C(=O)OC)c5=O)[C@H]1C[C@H]24` [MELODININE B], the IC50 in experiment [4] was 12.3 µM; in experiment [1], 4.62 µg/mL; in experiment [2] it was greater than 25 µg/mL; in experiment [3], greater than 25 µg/mL.
